Read-outs that look alike come from different tables or passages of the source.
What was measured:
[1] = molecular target: RORγ ligand binding domain (LBD) (Homo sapiens (Human), UniProt P51449); experiment: TR-FRET Activity Assay (ligand sensing assay, LANCE); conditions: for pIC50 (FRET): TR-FRET, interaction of RORγ-LBD with coactivator peptide
Source text: The ligand-binding domain (LBD) of RORγ was expressed as fusion protein with GST in BL-21 (BL3) cells using the vector pDEST15. Cells were lysed by lysozyme-treatment and sonication, and the fusion proteins purified over glutathione sepharose (Pharmacia) according to the manufacturers instructions. For screening of compounds for their influence on the RORγ-peptide interaction, the LANCE technology (Perkin Elmer) was applied. This method relies on the binding dependent energy transfer from a donor to an acceptor fluorophor attached to the binding partner of interest. For ease of handling and reduction of background from compound fluorescence LANCE technology makes use of generic fluorophore labels and time resolved detection assays were done in a final volume of 25 μL in a 384 well plate, in a Tris-based buffer system (20 mM Tris-HCl pH 6.8; 60 mM KCl, 1 mM DTT; 5 mM MgCl2; 35 ng/μL BSA), containing 20-60 ng/well recombinantly expressed RORγ-LBD fused to GST, 200-600 nM N-terminally biotinylated peptide, 200 ng/well Streptavidin-xlAPC conjugate (Prozyme) and 6-10 ng/well Eu W1024-antiGST (Perkin Elmer). DMSO content of the samples was kept at 1%.
After generation of the Tris-based buffer system, the potentially RORγ modulating ligands were diluted. […] The LANCE signal was detected by a Perkin Elmer EnVision™ Multilabel Counter. […] Ligands that promote the complex formation induce a concentration-dependent increase in time-resolved fluorescent signal.
Y is the response. Y starts at Bottom and goes to Top with a sigmoidal shape.
This is identical to the “four parameter logistic equation”. The IC50 values are calculated using this equation.

[2] = molecular target: RORγ (Homo sapiens, UniProt P51449); experiment: RORγ Gal4 Reporter Gene Assay; assay type: cell-based
How it was run: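 Cells at 5×10^5/well were transfected with RORγ fragments fused to the GAL4 DNA-binding domain (CMV promoter), a 5×GAL4-site firefly luciferase reporter and CMV-Renilla luciferase for normalization. About 4 h later serum-free MEM and compound were added (vehicle ≤0.1%). Cultures at 37 °C, 5% CO2; at least triplicates.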

[3] = firefly (FF) luciferase, 293T cells
[4] = renilla normalised (RENnorm) luciferase, 293T cells
[5] = firefly (FF) luciferase, 293T cells, read-out: pIC50 (FF) (converted)
[6] = renilla normalised (RENnorm) luciferase, 293T cells, read-out: pIC50 (REN) (converted)

RORγ, sequence (P51449 whole entry, looked up, the tested form may be a part): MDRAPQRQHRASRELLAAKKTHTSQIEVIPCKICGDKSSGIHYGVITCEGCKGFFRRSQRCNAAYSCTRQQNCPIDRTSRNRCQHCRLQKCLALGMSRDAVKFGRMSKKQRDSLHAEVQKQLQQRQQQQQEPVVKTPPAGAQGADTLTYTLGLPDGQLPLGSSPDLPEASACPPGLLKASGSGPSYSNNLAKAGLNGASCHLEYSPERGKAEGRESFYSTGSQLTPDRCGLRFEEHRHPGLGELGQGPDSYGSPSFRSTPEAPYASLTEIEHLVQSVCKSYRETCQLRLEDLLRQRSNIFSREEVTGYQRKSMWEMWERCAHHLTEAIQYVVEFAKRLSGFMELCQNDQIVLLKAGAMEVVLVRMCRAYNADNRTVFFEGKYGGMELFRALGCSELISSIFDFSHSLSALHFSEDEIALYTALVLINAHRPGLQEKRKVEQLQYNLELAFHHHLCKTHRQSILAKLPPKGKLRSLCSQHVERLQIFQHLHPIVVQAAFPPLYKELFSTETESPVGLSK
RORγ ligand binding domain (LBD), sequence (P51449 269-508): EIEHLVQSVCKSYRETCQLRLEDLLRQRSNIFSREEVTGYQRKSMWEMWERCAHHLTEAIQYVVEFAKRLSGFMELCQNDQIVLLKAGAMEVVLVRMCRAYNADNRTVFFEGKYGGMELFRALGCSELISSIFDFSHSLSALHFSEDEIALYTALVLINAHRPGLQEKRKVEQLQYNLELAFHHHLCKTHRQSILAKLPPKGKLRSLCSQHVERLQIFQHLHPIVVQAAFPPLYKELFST

SMILES	IC50 [1] [nM]	pIC50 (FF) [2, 3]	pIC50 (REN) [2, 4]	IC50 [2, 5] [nM]	IC50 [2, 6] [nM]	pIC50 (FRET) [1]	pIC50 (FF) [2]	pIC50 (REN) [2]
CC(C)(C)c1cc(-c2sc(C(=O)N[C@H]3C[C@H](C(=O)O)C3)nc2CC2CCCCC2)cc(C(C)(C)F)c1 [Example 24, (trans)-3-(5-(3-(tert-Butyl)-5-(2-fluoropropan-2-yl)phenyl)-4-(cyclohexylmethyl)thiazole-2-carboxamido)cyclobutanecarboxylic acid]	316	7.5	7.5					
CC(C)(C)c1cc(-c2sc(C(=O)N[C@H]3C[C@H](C(=O)O)C3)nc2CC2CCCCC2)cc(C(C)(C)O)n1 [8/10]	631			158	158			
CC(C)(C)NS(=O)(=O)c1ccc(-c2oc(C(=O)NC3CCOCC3)nc2CC2CCCCC2)cc1C(C)(C)C [Example 100/1]						5.9/6.3/6.3	5.9/6.3/6.3	5.9/6.3/6.3
N#CC1(NS(=O)(=O)c2ccc(-c3sc(C(=O)N4CC5(CCS(=O)(=O)CC5)C4)nc3CC3CCCCC3)c3ccccc23)CC1 [Example 14, N-(1-Cyanocyclopropyl)-4-(4-(cyclohexylmethyl)-2-(7,7-dioxido-7-thia-2-azaspiro[3.5]nonane-2-carbonyl)thiazol-5-yl)naphthalene-1-sulfonamide]						6.7/7.6/7.7	6.7/7.6/7.7	6.7/7.6/7.7
CC(C)(C)NS(=O)(=O)c1ccc(-c2nc(C(=O)NC34CCC(C(=O)O)(CC3)CC4)oc2CC2CCCCC2)c2ccccc12 [Example 103/1]						6.2/7.4/7.4	6.2/7.4/7.4	6.2/7.4/7.4
CC(C)(C)c1cc(-c2oc(C(=O)N[C@H]3C[C@H](C(=O)O)C3)nc2CC2CCCCC2)cc(C2(C)CC2)c1 [100/20]						6.0/6.8/7.0	6.0/6.8/7.0	6.0/6.8/7.0
CC1(c2cc(C(=O)NCC(F)(F)F)cc(-c3sc(C(=O)N[C@H]4C[C@H](C(=O)O)C4)nc3CC3CCCCC3)c2)CC1 [7/6]						6.2/7.1/7.2	6.2/7.1/7.2	6.2/7.1/7.2
CC(C)(O)CNC(=O)c1nc(CC2CCCCC2)c(-c2ccc(S(=O)(=O)NC3(C)COC3)c3ccccc23)s1 [8/5]						6.4/8.5/8.7	6.4/8.5/8.7	6.4/8.5/8.7
CC(C)(C)c1cc(-c2cc(C(N)=O)ccc2CC2CCCCC2)cc(C(C)(C)C)c1 [Example 208, 3′,5′-Di-tert-butyl-6-(cyclohexylmethyl)-[1,1′-biphenyl]-3-carboxamide]						6.5/6.3/6.3	6.5/6.3/6.3	6.5/6.3/6.3
CC(C)(C)c1cc(-c2sc(C(=O)NC3CC(C(=O)O)C3)nc2CC2CCCCC2)nc(C(C)(C)C)n1 (centres unmarked) [19/13]		6.9	6.9			6.5		
CC(C)(C)NS(=O)(=O)c1ccc(-c2sc(C(=O)NC3CCS(=O)(=O)CC3)nc2C2CCCCC2)c2ccccc12 [300/2]						6.9/8.2/8.2	6.9/8.2/8.2	6.9/8.2/8.2
CC(C)(C)NS(=O)(=O)c1ccc(-c2sc(C(=O)N3CC4(CSC4)C3)nc2CC2CCCCC2)c(Cl)c1Cl [6/32]						6.9/8.0/8.2	6.9/8.0/8.2	6.9/8.0/8.2
CC(C)(C)NS(=O)(=O)c1ccc(-c2sc(C(=O)NC3C[S+]([O-])C3)nc2CC2CCCCC2)c(Cl)c1Cl (centres unmarked) [15/5]						6.9/8.5/8.4	6.9/8.5/8.4	6.9/8.5/8.4
CC(C)(O)CNC(=O)c1nc(CC2CCCCC2)c(-c2ccc(S(N)(=O)=O)c(Cl)c2Cl)s1 [Example 17, 4-(Cyclohexylmethyl)-5-(2,3-dichloro-4-sulfamoylphenyl)-N-(2-hydroxy-2-methylpropyl)thiazole-2-carboxamide]				> 20000	> 20000	5.0		
CC(C)(C)NS(=O)(=O)c1ccc(-c2sc(C(=O)N[C@H]3C[C@H](C(=O)O)C3)nc2CC2CCCCC2)cc1C(C)(C)O [7/17]						6.5/8.0/8.0	6.5/8.0/8.0	6.5/8.0/8.0
CC(C)(C)c1cc(-c2sc(C(=O)N[C@H]3C[C@H](C(=O)O)C3)nc2CC2CCCCC2)cc(C(C)(C)O)c1 [Example 23, (trans)-3-(5-(3-(tert-Butyl)-5-(2-hydroxypropan-2-yl)phenyl)-4-(cyclohexylmethyl)-thiazole-2-carboxamido)cyclobutanecarboxylic acid]	631	8.2						
COC(c1nc(C(=O)NC2CCOCC2)sc1-c1cc(C(C)(C)C)cc(C2(C)CC2)c1)C1CCCCC1 (centres unmarked) [19/3]						6.8/7.1/7.1	6.8/7.1/7.1	6.8/7.1/7.1
CC(C)(C)NS(=O)(=O)c1ccc(-c2oc(C(=O)N3CC4(CCSCC4)C3)nc2CC2CCCCC2)c2ccccc12 [100/11]						6.8/7.1/7.3	6.8/7.1/7.3	6.8/7.1/7.3
CC(C)(C)NS(=O)(=O)c1ccc(-c2sc(C(=O)N[C@H]3C[C@H](C(=O)O)C3)nc2CC2CCCCC2)c(Cl)c1C(F)(F)F [7/12]						6.2/8.0/8.2	6.2/8.0/8.2	6.2/8.0/8.2
CC(C)(C)NS(=O)(=O)c1ccc(-c2oc(C(=O)NC3CCS(=O)(=O)CC3)nc2CC2CCCCC2)c(Cl)c1Cl [100/16]						6.6/8.4/8.2	6.6/8.4/8.2	6.6/8.4/8.2
CN1CCN(C(=O)c2nc(CC3CCCCC3)c(-c3ccc(S(=O)(=O)NC(C)(C)C)c4ccccc34)s2)CC1 [6/53]						6.6/7.1/7.4	6.6/7.1/7.4	6.6/7.1/7.4
CC(C)(C)c1cc(-c2oc(C(=O)NC3CCOCC3)nc2CC2CCCCC2)cc(C2(C)CC2)c1 [100/18]						6.9/6.9/6.9	6.9/6.9/6.9	6.9/6.9/6.9
CC(C)(C)NS(=O)(=O)c1ccc(-c2sc(C(=O)NC3C[S+]([O-])C3)nc2CC2CCCCC2)cc1C(C)(C)O (centres unmarked) [15/2]						6.6/7.3/7.3	6.6/7.3/7.3	6.6/7.3/7.3
CC(=O)NS(=O)(=O)c1nc(-c2cc(C(C)(C)C)cc(C(C)(C)C)c2)c(CC2CCCCC2)s1 [Example 3, N-((5-(Cyclohexylmethyl)-4-(3,5-di-tert-butylphenyl)thiazol-2-yl)sulfonyl)acetamide]				> 20000	> 20000	5.1		
CC(C)(C)NS(=O)(=O)c1ccc(-c2sc(C(=O)NC34CCC(C(=O)O)(CC3)CC4)nc2CC2CCCCC2)c2ccccc12 [6/8]						6.3/8.2/8.2	6.3/8.2/8.2	6.3/8.2/8.2
CC(C)(O)CNC(=O)c1nc(CC2CCCCC2)c(-c2ccc(S(=O)(=O)NC3(C(N)=O)CC3)c3ccccc23)s1 [8/3]						6.4/7.5/7.6	6.4/7.5/7.6	6.4/7.5/7.6
CC(C)(C)NS(=O)(=O)c1ccc(-c2sc(C(=O)N[C@H]3C[C@H](C(=O)O)C3)nc2CC2CCCCC2)c(OC(F)F)c1Cl [21/3]	398			10	5.01			
CC(C)(C)NS(=O)(=O)c1ccc(-c2sc(C(=O)NC3C[S+]([O-])C3)nc2CC2CCCCC2)cc1C(C)(C)O (centres unmarked) [Example 15/1]						6.7/8.0/8.0	6.7/8.0/8.0	6.7/8.0/8.0

From patent US10301272B2, “Carboxamide or sulfonamide substituted thiazoles and related derivatives as modulators for the orphan nuclear receptor ROR[γ]” (Phenex Pharmaceuticals AG, priority 2012, dated 2019)
